Measurements: US9562059B2, “Anticancer maytansinoids with two fused macrocyclic rings” (priority 2013, dated 2017)

Tests used:
[1] = system: human lung carcinoma Lu1 cell line; assay: Cell culture panel bioassay, Lu1 cell line; format: cell-based
Description: (§1) Human oral epidermoid carcinoma KB cell line, human promyelocytic leukemia HL-60 cell line, human prostate carcinoma LNCaP cell line, human breast carcinoma MCF-7 cell line, human colon carcinoma Col2 cell line, and human lung carcinoma Lu1 cell line are activated from the frozen cells that are stored in Department of Medicinal Chemistry and Pharmacognosy, University of Illinois at Chicago, Chicago, Ill. Col2 cells are maintained in MEME medium. KB cells are maintained in DMEM medium. LNCaP cells are maintained in RPMI1640 medium with hormone-free 10% […] FBS (fetal bovine serum) supplemented with 0.1 nM testosterone, Lu1 cells are cultured in MEME medium. MCF-7 cells are maintained in MEME medium containing 10 mg/L of insulin. In each case, PSF (100 units/mL penicillin G, 100 μg/mL streptomycin sulfate, 250 ng/mL amphotericin B) is added. All media are supplemented with 10% heat-inactivated FBS.
(§2) Extracts, fractions, and compounds are tested in a human oral epidermoid carcinoma (KB) cell line using established protocols. In addition, all pure compounds are evaluated against the other human cancer cell lines comprising our cytotoxicity screening panel. Cytotoxicity assays involving colon (Col-2), prostate (LNCaP), and lung (Lu1) carcinoma cell lines are performed using sulforhodamine B according to established protocols.

[2] = system: human colon carcinoma Col2 cell line; assay: Cell culture panel bioassay, Col2 cell line; format: cell-based
Description: as §1, §2

[3] = system: human prostate carcinoma LNCaP cell line; assay: Cell culture panel bioassay, LNCaP cell line; format: cell-based
Description: as §1, §2

[4] = system: human breast carcinoma MCF-7 cell line; assay: Cell culture panel bioassay, MCF-7 cell line; format: cell-based
Description: as §1, §2

Lu1 cells = assay: In vivo hollow fiber test, Lu1 cells; parameters: species or system mice; details: dose 2.0 mg/kg
Description: (§3) Hollow fiber tests are well known in the art for providing preliminary indications of therapeutic efficacy (Mi et al. (2002), J. Nat. Prod. 65: 842-850). In hollow fiber tests, human tumor cell lines currently employed in cell cultures are grown inside semipermeable hollow fibers to form heterogeneous solid tumor models. The hollow fibers containing the human tumor cells are implanted in the intraperitoneal or subcutaneous compartments of host mice, and the mice treated with the test compound of interest (Hollingshead et al, (1995), Life Sciences 57(2):131-141).
(§4) Loeseneriellin B isolated from Loeseneriella pauciflora (Celastraceae) is tested for in vivo hollow fiber study.

Col2 cells = assay: In vivo hollow fiber test, Col2 cells; parameters: species or system mice; details: Col2-SC, dose 2.0 mg/kg
Description: as §3, §4

MCF7 cells = assay: In vivo hollow fiber test, MCF7 cells; parameters: species or system mice; details: dose 2.0 mg/kg
Description: as §3, §4

HCT116 cancer cells = assay: HCT116 xenograft mouse model, tumor growth; format: in vivo, nude mice; details: 5 mg/kg i.v. daily for 3 weeks (FIG. 2)
Description: HCT116 cancer cells (2×10^7 cells in 100 μL suspension) are subcutaneously implanted in the rear flank of each mouse. After 10 days, solid tumors appear at the implanted sites. […] Daily injections at i.v. sites were scheduled for 21 days.
FIGS. 1 to 3 show the inhibition of HCT116-tumor xenograft growth by loeseneriellin B. The treatment started on the 10th day when the tumor size reached approximately 100 mm^3 (L×W×W).

KB cells = details: Powell et al. (1982); cited from earlier work
[5] = system: P388 lymphocytic leukemia; details: Powell et al. (1982); cited from earlier work
[6] = system: human oral epidermoid carcinoma KB cell line; assay: Cell culture panel bioassay, KB cell line; format: cell-based; details: concentration required to inhibit cell growth by 50%; triplicate experiments; read-out: IC50 KB
Description: as §1, §2

CC(=O)O[C@H]1C(=O)[C@@]2(C)[C@H]([C@H](OC(=O)c3ccccc3)[C@]3(O)C[C@H](OC(=O)[C@H](O)[C@@H](NC(=O)c4ccccc4)c4ccccc4)C(C)=C1C3(C)C)[C@]1(OC(C)=O)CO[C@@H]1C[C@@H]2O [Paclitaxel]
inhibition at 0.02 µg/mL ([1]; Homo sapiens, Lu1, at 20 ng/mL, positive control, read-out: inhibition against Lu-1): 56%
inhibition at 0.02 µg/mL ([2]; Homo sapiens, Col2, at 20 ng/mL, positive control, read-out: inhibition against Col2): 76%
inhibition at 0.02 µg/mL ([3]; Homo sapiens, LNCaP, at 20 ng/mL, positive control, read-out: inhibition against LNCaP): 89%
inhibition at 0.02 µg/mL ([4]; Homo sapiens, MCF7, at 20 ng/mL, positive control, read-out: inhibition against MCF-7): 71%
Inhibition (%) (Lu1 cells; Lu1-IP): 39.9%
Inhibition (%) (Lu1 cells; Lu1-SC): 0%
Inhibition (%) (Col2 cells): 6.9%
Inhibition (%) (MCF7 cells; MCF7-IP): 71.3%
Inhibition (%) (MCF7 cells; MCF7-SC): 0%
excised tumor weights, % inhibition versus control (HCT116 cancer cells): 37.6%

COc1cc2cc(c1Cl)N1CCC(C)(O)C(=O)N[C@@H](C)C(=O)O[C@@H](CC1=O)[C@]1(C)OC1[C@H](C)[C@@H]1C[C@@](O)(NC(=O)O1)[C@H](OC)/C=C/C=C(\C)C2OC (some centres unmarked) [treflorine]
antitumor activity against KB cells (KB cells): retain antitumor activity
antitumor activity against P388 lymphocytic leukemia [5]: retain antitumor activity

COc1cc2cc(c1Cl)N1CC(O)C(C)(O)C(=O)N[C@@H](C)C(=O)O[C@@H](CC1=O)[C@]1(C)OC1[C@H](C)[C@@H]1C[C@@](O)(NC(=O)O1)[C@H](OC)/C=C/C=C(\C)C2OC (some centres unmarked) [trenudine]
antitumor activity against KB cells (KB cells): retain antitumor activity
antitumor activity against P388 lymphocytic leukemia [5]: retain antitumor activity

CC[C@]1(O)C[C@@H]2CN(CCc3c([nH]c4ccccc34)[C@@](C(=O)OC)(c3cc4c(cc3OC)N(C)[C@H]3[C@@](O)(C(=O)OC)[C@H](OC(C)=O)[C@]5(CC)C=CCN6CC[C@]43[C@@H]65)C2)C1 [vinblastine, Vinblastine]
inhibition at 0.04 µg/mL ([1]; Homo sapiens, Lu1, at 40 ng/mL, positive control, read-out: inhibition against Lu-1): 54%
inhibition at 0.04 µg/mL ([2]; Homo sapiens, Col2, at 40 ng/mL, positive control, read-out: inhibition against Col2): 87%
inhibition at 0.04 µg/mL ([3]; Homo sapiens, LNCaP, at 40 ng/mL, positive control, read-out: inhibition against LNCaP): 89%
inhibition at 0.04 µg/mL ([4]; Homo sapiens, MCF7, at 40 ng/mL, positive control, read-out: inhibition against MCF-7): 70%

Loeseneriellin A [Compound 2]
IC50 [6]: 0.1 nM
IC50 ([1]; concentration required to inhibit cell growth by 50%, triplicate experiments, read-out: IC50 Lu1): 0.38 nM
IC50 ([2]; concentration required to inhibit cell growth by 50%, triplicate experiments, read-out: IC50 Col2): 0.18 nM
IC50 ([3]; concentration required to inhibit cell growth by 50%, triplicate experiments, read-out: IC50 LNCaP): 0.18 nM
IC50 ([4]; concentration required to inhibit cell growth by 50%, triplicate experiments, read-out: IC50 MCF-7): 0.19 nM
